# According to article PMC7663263 (Molecules, 2020):
# Key:
# [1] = test system: TBL3 cells (BL3 infected with T. annulata); assay: Proliferation test on Theileria annulata-infected cells (TBL3); type: cell-based, bovine / Theileria annulata; settings: 0.5 μM
# Method: Theileria annulata culture: The TBL3 cell line was derived by in vitro infection of the spontaneous bovine B-lymphosarcoma cell line BL3 with the Hissar stock of T. annulata. B cell characteristics of the lines have been described. The cells are maintained at 37 °C under 5% CO2, in RPMI medium supplemented with 10% FCS, 25 mM Hepes, 4 mM L-glutamine, 100 μg/mL of streptomycin, 100 IU/mL of penicillin and […] 2-mercapthoethanol.
# Cells were cultured in 12-well plates at an initial density of 200,000 cells per well in duplicate for each condition. […] The cells were cultured in 12-well plates at an initial density of 200,000 cells per well and drug was added every 24 h. To be able to compare the results, a drug-free control was also performed. Cell counting was done at 24, 72 and 96 h using the trypan blue method.
# [2] = test system: adult ex vivo S. mansoni worms; assay: Adult ex vivo Schistosoma worm killing assay; type: cell-based
# Method: Adult ex vivo Schistosoma assay: Mice (Swiss-Webster) were infected with S. mansoni by percutaneous exposure for 1 h to cercariae (NMRI strain) obtained from infected Biomphalaria glabrata snails. This study was approved by the Institutional Animal Care and Use Committee of Rush University Medical Center (17-053; Department of Health and Human Services animal welfare assurance number A-3120-01). Adult worms were isolated from infected mice as described and cultured in RPMI medium +10% fetal calf serum (FCS), 10 mM glutamine, 100 IU/mL penicillin and 100 µg/mL streptomycin for 24 h before compound addition. Compounds were dissolved in DMSO and added at the indicated concentrations. The culture media was replaced every day and fresh compounds added. Control worms were treated with DMSO alone. Worms were cultured for 5 days. […] Assays were done in triplicate with about 10 worms in each well. This study was approved by the Institutional Animal Care and Use Committee of Rush University Medical Center (17-053; Department of Health and Human Services animal welfare assurance number A-3120-01).
# T. cruzi Tulahuen CL2 = assay: Anti-Chagas activity, T. cruzi on MRC-5 cells; type: cell-based; settings: amastigotes, MRC-5 host cells, 7 days; read-out: Trypanosoma cruzi IC50 (µM) ± SD
# Method: Anti-Chagas activity: T. cruzi Tulahuen CL2 (benznidazole-sensitive, LacZ-reporter strain) was maintained on MRC-5 cells in minimal essential medium (MEM) supplemented with […], 16.5 mM sodium hydrogen carbonate and 5% FCS. In the assay, 4 × 10^3 MRC-5 cells and 4 × 10^4 parasites were added to each well. After incubation at 37 °C for 7 days, parasite growth was assessed by adding the substrate chlorophenol red -D-galactopyranoside. The color reaction was read at 540 nm after 4 h and absorbance values were expressed as a percentage of the blank controls. Benznidazole was included as reference drug.
# Human TrxR = settings: 3.7 nM enzyme, 3 mM DTNB; after 10 min preincubation; read-out: IC50 Human TrxR, substrate DTNB; cited from earlier work
# [3] = test system: human fetal lung fibroblast (MRC-5); assay: in vitro
# Method: Toxicity in human fetal lung fibroblast (MRC-5) cell line and primary mouse macrophages (PMM) was assessed using a previously reported assay in 96-well microtiter plates. Tamoxifen and miltefosine were included as reference drugs (Table 10).
# For MRC5SV2 or PMM cells, the assays were performed in 96-well microtiter plates, each well containing 10 µL of compound dilution and 190 µL of cell inoculum (3 × 10^4 cells/mL) as reported. Cell growth was compared to untreated controls (100% growth) and assay-media controls (0% growth). After three-day incubation, cell viability was assessed fluorometrically by adding resazurin [50 µL/well of a stock solution in phosphate buffer (50 µg/mL)], incubating for 4 h and measuring fluorescence (ex 550 nm, em 590 nm). The results are expressed as percentage reduction in cell growth as compared to untreated control wells. […] Tamoxifen was included as the reference drug.
# [4] = test system: T. b. brucei Squib-427 strain; assay: Anti-trypanosomal activity, T. b. brucei trypomastigotes (resazurin); type: cell-based, Trypanosoma brucei brucei; settings: 72 h
# Method: Anti-trypanosomal activity: T. b. brucei Squib-427 strain (suramin-sensitive) and T. b. gambiense (ITMAP/1893) were cultured at 37 °C and 5% CO2 in HMI-9 medium supplemented with 10% FCS [90]. About 10^4 trypomastigotes/well were added to each well and parasite growth was assessed after 72 h at 37 °C by adding resazurin and reading at ex 550 nm, em 590 nm. Suramin was included as reference drug for T. b. brucei and pentamidine for T. b. gambiense.
# O. ochengi adult male = assay: Onchocerca ochengi adult male worm motility assay; type: cell-based; settings: 10 μM
# Method: Onchocerca ochengi adult worm assays: For O. ochengi worm assays, subcutaneous nodules containing adult O. ochengi worms were removed from the hides of infected cows collected at abattoirs in Douala, Cameroon. Masses were incubated in 4 mL of complete culture medium (RPMI-1640, 5% newborn calf serum, 200 units/mL penicillin, 200 μg/mL streptomycin and 2.5 μg/mL amphotericin B) in standard 12-well culture plates and maintained in a 37 °C, 5% CO2 incubator overnight during which time the adult males migrated out of the masses while the females remained in the nodules. Compound and control wells (worms in 1% DMSO) were tested in quadruplicate and experiments were repeated twice on different days. Cultures were terminated on day 7. […] Adult female worm viability was assessed on day 7 by the standard MTT/formazan assay in which each nodular mass was placed in a well of a 48-well plate containing 500 μL of 0.5 mg/mL MTT (Sigma-Aldrich) in culture medium. Viability was evaluated visually by the extent to which the female worm mass was stained with MTT. Mean percent inhibition of formazan formation was calculated relative to the negative control worm masses after 7 days in culture.
structure (smiles),measurement,setting,value
"CC(=O)OCC1OC([S][Au][PH]2(c3ccccc3)C(c3ccccn3)=CC=C2c2ccccn2)C(OC(C)=O)C(OC(C)=O)C1OC(C)=O [GoPI-sugar, 1-thio-β-D-glucopyranose 2,3,4,6-tetraacetato-S-Au{1-phenyl-2,5-di(2-pyridyl)phosphole}]",time at which the antiproliferative effect occurred,[1]; TBL3 cells,24 h
same,number of TBL3 cells per well,"[1]; first 24 h, initial density 200,000 cells per well","200,000 cells per well"
same,Dead (%) Day 1,[2]; 1 μM,0%
same,Dead (%) Day 2,[2]; 1 μM,0%
same,Dead (%) Day 3,[2]; 1 μM,0%
same,Dead (%) Day 4,[2]; 1 μM,0%
same,Dead (%) Day 5,[2]; 1 μM,0%
same,Dead (%) Day 1,[2]; 5 μM,100%
same,Dead (%) Day 1,[2]; 10 μM,100%
same,IC50,T. cruzi Tulahuen CL2,0.56 ± 0.11 µM
same,IC50,Human TrxR,0.49 ± 0.04 nM
same,CC50,[3],590 nM
same,IC50,[4],1830 nM
same,% Inhibition of Motility O. ochengi Adult Male Day 5,O. ochengi adult male,100%
